Data on 22 compounds can be found in patent publication US12686673B2 (Blueprint Medicines Corporation, priority 2020, dated 2026).

Common to all, as to assay type: cell-based
Assay [1] has as its system A431 cells. Briefly: Cellular proliferation (Alamar Blue) assay, A431.
The target in assay [2] is EGFR(D770_N771insSVD) expressing Ba/F3 stable cell line (Homo sapiens, UniProt P00533, DUP768-770, cells depend on it). Briefly: Cellular proliferation (Alamar Blue) assay, EGFR D770_N771insSVD Ba/F3. The following applies: 72 hr, read-out: D770 IC50. A digest of the protocol: (§1)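 Steps: plate 15,000 Ba/F3 cells/well in RPMI/10% FBS; rest 16-18 h, 37 °C; add compound at final 10-0.0005 μM (3-fold series) or DMSO; incubate 72 hr; add Alamar Blue; read after 3 h.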
On the technique in general: Alamar Blue is a resazurin reagent that responds to reducing activity.

Assay [3] concerns the target EGFR (A767_dupASV) expressing Ba/F3 stable cell line (Homo sapiens, UniProt P00533, DUP767-769, cells depend on it). Briefly: Cellular proliferation (Alamar Blue) assay, EGFR A767_dupASV Ba/F3. The conditions noted are these: 72 hr, read-out: A767 IC50. A digest of the protocol: as §1
Assay [4] has as its target HER2 (A775_G776insYVMA) expressing Ba/F3 stable cell line (Homo sapiens, UniProt P04626, DUP772-775, cells depend on it). The assay is described as follows: Cellular proliferation (Alamar Blue) assay, HER2 A775_G776insYVMA Ba/F3. The following applies: 72 hr, read-out: YVMA IC50. A digest of the protocol: as §1
Where [5] appears, read: Homo sapiens, A-431; A431 cells, 72 hr, Alamar Blue; read-out: A431 IC50.
Where [6] appears, read: Homo sapiens, A-431; A431 cells, Alamar Blue, 72 hr; read-out: A431 IC50.

Where a name gives a salt, the structure may show the parent alone. Read-outs that look alike come from different tables or passages of the source.

EGFR (A767_dupASV) expressing Ba/F3 stable cell line, sequence (P00533 with tags, fused parts or gaps DUP767-769): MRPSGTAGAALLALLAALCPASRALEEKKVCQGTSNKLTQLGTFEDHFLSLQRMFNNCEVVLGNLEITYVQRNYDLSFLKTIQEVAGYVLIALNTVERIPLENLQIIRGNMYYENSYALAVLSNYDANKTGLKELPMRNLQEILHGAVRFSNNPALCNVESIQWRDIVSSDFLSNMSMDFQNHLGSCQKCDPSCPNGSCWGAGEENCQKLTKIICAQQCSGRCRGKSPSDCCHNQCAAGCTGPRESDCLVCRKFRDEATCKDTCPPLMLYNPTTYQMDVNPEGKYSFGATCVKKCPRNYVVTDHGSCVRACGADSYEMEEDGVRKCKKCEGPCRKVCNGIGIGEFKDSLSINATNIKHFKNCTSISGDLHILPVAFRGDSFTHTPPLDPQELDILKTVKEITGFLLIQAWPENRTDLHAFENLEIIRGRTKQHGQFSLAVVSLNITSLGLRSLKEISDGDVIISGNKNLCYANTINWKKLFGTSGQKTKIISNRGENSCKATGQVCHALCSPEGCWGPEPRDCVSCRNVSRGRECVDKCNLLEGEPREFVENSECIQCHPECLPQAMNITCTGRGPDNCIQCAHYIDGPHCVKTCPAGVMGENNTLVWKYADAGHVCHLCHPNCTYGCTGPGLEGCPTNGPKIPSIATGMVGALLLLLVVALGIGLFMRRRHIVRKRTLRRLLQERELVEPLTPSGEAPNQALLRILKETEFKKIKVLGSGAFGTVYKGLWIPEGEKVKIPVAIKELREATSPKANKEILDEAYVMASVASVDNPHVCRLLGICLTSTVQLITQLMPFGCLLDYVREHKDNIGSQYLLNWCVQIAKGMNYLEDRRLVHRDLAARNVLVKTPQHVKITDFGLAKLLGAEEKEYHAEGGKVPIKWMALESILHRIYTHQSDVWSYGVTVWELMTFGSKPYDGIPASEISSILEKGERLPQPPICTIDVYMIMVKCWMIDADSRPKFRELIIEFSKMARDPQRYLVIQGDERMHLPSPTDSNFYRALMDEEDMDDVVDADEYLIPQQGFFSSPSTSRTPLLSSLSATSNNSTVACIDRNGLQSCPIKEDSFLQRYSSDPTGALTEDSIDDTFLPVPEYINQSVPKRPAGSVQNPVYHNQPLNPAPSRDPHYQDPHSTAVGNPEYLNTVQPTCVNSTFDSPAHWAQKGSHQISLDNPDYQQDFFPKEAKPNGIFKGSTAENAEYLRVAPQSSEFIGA
HER2 (A775_G776insYVMA) expressing Ba/F3 stable cell line, sequence (P04626 with tags, fused parts or gaps DUP772-775): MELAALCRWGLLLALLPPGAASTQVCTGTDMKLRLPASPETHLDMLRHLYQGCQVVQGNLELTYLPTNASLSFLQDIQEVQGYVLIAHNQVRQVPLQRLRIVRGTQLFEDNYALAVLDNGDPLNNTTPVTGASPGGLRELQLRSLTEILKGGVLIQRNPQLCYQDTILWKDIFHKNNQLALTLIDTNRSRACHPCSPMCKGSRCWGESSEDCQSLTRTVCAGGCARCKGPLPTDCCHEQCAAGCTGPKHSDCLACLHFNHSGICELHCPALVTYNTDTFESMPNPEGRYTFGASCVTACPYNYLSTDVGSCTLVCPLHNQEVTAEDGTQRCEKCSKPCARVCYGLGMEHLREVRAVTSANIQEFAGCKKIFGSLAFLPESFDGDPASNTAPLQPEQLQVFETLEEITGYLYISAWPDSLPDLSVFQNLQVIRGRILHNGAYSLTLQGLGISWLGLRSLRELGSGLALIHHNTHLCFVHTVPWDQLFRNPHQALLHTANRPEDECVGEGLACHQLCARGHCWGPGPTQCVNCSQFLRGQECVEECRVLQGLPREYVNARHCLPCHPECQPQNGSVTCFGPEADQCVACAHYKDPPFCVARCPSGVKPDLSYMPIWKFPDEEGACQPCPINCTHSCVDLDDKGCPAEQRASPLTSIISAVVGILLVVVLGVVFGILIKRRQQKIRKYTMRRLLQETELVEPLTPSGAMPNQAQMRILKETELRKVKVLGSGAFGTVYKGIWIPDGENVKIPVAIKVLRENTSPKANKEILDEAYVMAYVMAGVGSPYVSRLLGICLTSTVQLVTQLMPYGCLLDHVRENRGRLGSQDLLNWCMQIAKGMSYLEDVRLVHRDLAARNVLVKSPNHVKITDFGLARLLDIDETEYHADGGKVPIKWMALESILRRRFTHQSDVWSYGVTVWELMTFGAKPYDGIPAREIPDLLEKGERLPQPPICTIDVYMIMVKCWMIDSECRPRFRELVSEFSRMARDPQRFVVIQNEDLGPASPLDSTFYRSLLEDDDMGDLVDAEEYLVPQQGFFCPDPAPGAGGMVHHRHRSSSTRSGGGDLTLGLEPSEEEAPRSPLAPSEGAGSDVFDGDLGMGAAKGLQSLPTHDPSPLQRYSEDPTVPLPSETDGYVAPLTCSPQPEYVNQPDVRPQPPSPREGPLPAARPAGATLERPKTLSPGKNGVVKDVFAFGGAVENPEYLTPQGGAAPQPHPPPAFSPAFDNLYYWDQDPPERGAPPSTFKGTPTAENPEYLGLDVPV
EGFR(D770_N771insSVD) expressing Ba/F3 stable cell line, sequence (P00533 with tags, fused parts or gaps DUP768-770): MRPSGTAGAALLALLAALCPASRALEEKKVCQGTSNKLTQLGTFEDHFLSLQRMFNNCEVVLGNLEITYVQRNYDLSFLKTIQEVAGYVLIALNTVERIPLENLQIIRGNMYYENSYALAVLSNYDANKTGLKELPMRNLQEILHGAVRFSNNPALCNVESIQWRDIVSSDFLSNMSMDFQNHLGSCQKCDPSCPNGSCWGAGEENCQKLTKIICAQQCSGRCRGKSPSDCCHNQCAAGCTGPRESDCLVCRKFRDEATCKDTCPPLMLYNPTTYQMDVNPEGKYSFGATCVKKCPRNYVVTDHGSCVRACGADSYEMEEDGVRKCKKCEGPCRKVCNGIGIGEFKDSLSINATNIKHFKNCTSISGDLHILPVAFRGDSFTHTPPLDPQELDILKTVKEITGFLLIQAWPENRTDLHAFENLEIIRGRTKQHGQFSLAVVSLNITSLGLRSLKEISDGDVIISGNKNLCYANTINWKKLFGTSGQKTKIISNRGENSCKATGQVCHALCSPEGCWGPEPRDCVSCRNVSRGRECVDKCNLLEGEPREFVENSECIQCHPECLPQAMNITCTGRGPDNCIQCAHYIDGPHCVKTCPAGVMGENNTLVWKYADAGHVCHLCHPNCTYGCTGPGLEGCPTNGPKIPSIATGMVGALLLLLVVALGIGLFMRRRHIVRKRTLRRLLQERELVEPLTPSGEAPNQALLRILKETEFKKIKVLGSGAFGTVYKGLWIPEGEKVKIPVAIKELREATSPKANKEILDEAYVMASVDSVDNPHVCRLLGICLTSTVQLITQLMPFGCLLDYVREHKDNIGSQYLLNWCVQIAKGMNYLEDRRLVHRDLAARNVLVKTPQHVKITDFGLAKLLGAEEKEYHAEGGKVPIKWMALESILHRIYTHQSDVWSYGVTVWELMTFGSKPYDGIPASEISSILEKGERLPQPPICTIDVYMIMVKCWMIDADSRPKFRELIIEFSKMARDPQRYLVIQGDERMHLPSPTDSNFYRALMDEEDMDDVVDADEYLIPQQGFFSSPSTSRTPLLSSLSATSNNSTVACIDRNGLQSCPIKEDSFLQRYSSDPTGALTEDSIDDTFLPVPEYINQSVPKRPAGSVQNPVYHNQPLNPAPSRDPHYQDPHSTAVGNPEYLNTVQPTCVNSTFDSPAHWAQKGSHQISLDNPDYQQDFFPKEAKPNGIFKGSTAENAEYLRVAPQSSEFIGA

With `CN(C)C/C=C/C(=O)Nc1ccc(F)c(Nc2nc(Nc3cnn(C)c3)ncc2-c2ccc(CC(F)(F)F)cc2)c1` [Compound 301, (E)-4-(dimethylamino)-N-(4-fluoro-3-((2-((1-methyl-1H-pyrazol-4-yl)amino)-5-(4-(2,2,2-trifluoroethyl)phenyl)pyrimidin-4-yl)amino)phenyl)but-2-enamide], the IC50 in assay [1] (setting [5]) came to 16 nM. The GI50 in assay [2] was determined as 193 nM; in assay [3] it was 68 nM; in assay [4], 187 nM.

As to `C=CC(=O)Nc1cccc(Nc2nc(Nc3cnn(C)c3)ncc2C(C)N(Cc2ccccc2)C(C)=O)c1` (stereo not shown) [Compound 47, N-(3-((5-(1-(N-benzylacetamido)ethyl)-2-((1-methyl-1H-pyrazol-4-yl)amino)pyrimidin-4-yl)amino)phenyl)acrylamide], in assay [1] (setting [6]), the 50% inhibitory concentration (IC50) is more than 10000 nM. Further, the GI50 is 8850 nM in assay [2], 7080 nM in assay [3] and more than 10000 nM in assay [4].

Regarding `C=CC(=O)Nc1ccc(F)c(Nc2nc(Nc3cn(C)nc3C(F)(F)F)ncc2-c2ccc(C(F)(F)F)cc2)c1` [Compound 146, N-(4-fluoro-3-((2-((1-methyl-3-(trifluoromethyl)-1H-pyrazol-4-yl)amino)-5-(4-(trifluoromethyl)phenyl)pyrimidin-4-yl)amino)phenyl)acrylamide trifluoroacetate], in assay [1] (setting [6]), the IC50 stood at 274 nM. The results for the GI50 in assay [2], in assay [3] and in assay [4] were 342 nM, 279 nM and 6130 nM, respectively.

For `C=CC(=O)Nc1ccc(F)c(Nc2nc(Nc3cnn(C)c3)ncc2-c2cccc3ccccc23)c1` [Compound 136, N-(4-fluoro-3-((2-((1-methyl-1H-pyrazol-4-yl)amino)-5-(naphthalen-1-yl)pyrimidin-4-yl)amino)phenyl)acrylamide trifluoroacetate], the IC50 in assay [1] (setting [6]) is 40 nM. Moreover, the GI50 came to 106 nM in assay [2], 299 nM in assay [3] and 412 nM in assay [4].

As to `C=CC(=O)Nc1ccc(F)c(Nc2nc(Nc3cnn(CC(C)(C)O)c3)ncc2-c2ccc(C(F)(F)F)cc2)c1` [Compound 240, N-(4-fluoro-3-((2-((1-(2-hydroxy-2-methylpropyl)-1H-pyrazol-4-yl)amino)-5-(4-(trifluoromethyl)phenyl)pyrimidin-4-yl)amino)phenyl)acrylamide], the IC50 in assay [1] (setting [5]) was 441 nM. In addition, the GI50 in assay [2] amounted to 395 nM; in assay [3], 861 nM; in assay [4] it was 2010 nM.

As for `C=CC(=O)Nc1cccc(Oc2nc(Nc3cnn(C)c3)cnc2C)c1` [Compound 158, N-(3-((3-methyl-6-((1-methyl-1H-pyrazol-4-yl)amino)pyrazin-2-yl)oxy)phenyl)acrylamide], the IC50 in assay [1] (setting [6]) is more than 10000 nM. The GI50 in assay [2], in assay [3] and in assay [4] was more than 10000 nM throughout.

`C=CC(=O)Nc1ccc(F)c(Nc2nc(Nc3cnn(C)c3)ncc2-c2ccc(C3CC3)cc2)c1` [Compound 128, N-(3-((5-(4-cyclopropylphenyl)-2-((1-methyl-1H-pyrazol-4-yl)amino)pyrimidin-4-yl)amino)-4-fluorophenyl)acrylamide trifluoroacetate]: the IC50 in assay [1] (setting [6]) was 64 nM. In addition, the figures for the GI50 in assay [2], in assay [3] and in assay [4] were 101 nM, 114 nM and 654 nM, respectively.

On to `C=CC(=O)Nc1cccc(Nc2nc(Nc3cnn(C)c3)ncc2NS(=O)(=O)c2ccccc2)c1` [Compound 29, N-(3-((2-((1-methyl-1H-pyrazol-4-yl)amino)-5-(phenylsulfonamido)pyrimidin-4-yl)amino)phenyl)acrylamide], for which the IC50 in assay [1] (setting [6]) is more than 10000 nM. Further, the GI50 in assay [2], in assay [3] and in assay [4] was more than 10000 nM each time.

In the case of `C=CC(=O)Nc1cccc(Nc2nc(Nc3cnn(C)c3)ncc2-c2ccc(CC(F)(F)F)cc2)c1` [Compound 293, N-(3-((2-((1-methyl-1H-pyrazol-4-yl)amino)-5-(4-(2,2,2-trifluoroethyl)phenyl)pyrimidin-4-yl)amino)phenyl)acrylamide], in assay [1] (setting [5]), the IC50 stood at 4 nM. In addition, the GI50 in assay [2] was 21 nM; in assay [3] it was 28 nM; in assay [4] it was 110 nM.

`C=CC(=O)Nc1ccc(F)c(Nc2nc(Nc3cn(C)nc3Cl)ncc2-c2ccc(C(F)(F)F)cc2)c1` [Compound 245, N-[3-({2-[(3-chloro-1-methyl-1H-pyrazol-4-yl)amino]-5-[4-(trifluoromethyl)phenyl]pyrimidin-4-yl}amino)-4-fluorophenyl]prop-2-enamide]: the IC50 in assay [1] (setting [5]) came out at 63 nM. Further, the GI50 in assay [2] amounted to 91 nM; in assay [3], 115 nM; in assay [4] it was 202 nM.

`C=CC(=O)Nc1ccc(F)c(Nc2nc(Nc3cnn(C)c3)ncc2-c2ccc3ncnn3c2)c1` [Compound 279, N-(3-((5-([1,2,4]triazolo[1,5-a]pyridin-6-yl)-2-((1-methyl-1H-pyrazol-4-yl)amino)pyrimidin-4-yl)amino)-4-fluorophenyl)acrylamide]: the IC50 in assay [1] (setting [5]) is 93 nM. The GI50 stood at 149 nM in assay [2], 328 nM in assay [3] and 471 nM in assay [4].

Take `C=CC(=O)Nc1cccc(Nc2nc(Nc3cnn(C)c3)ncc2NCc2ccccc2)c1` [Compound 32, N-(3-((5-(benzylamino)-2-((1-methyl-1H-pyrazol-4-yl)amino)pyrimidin-4-yl)amino)phenyl)acrylamide]: in assay [1] (setting [6]), the IC50 was more than 10000 nM. Further, the GI50 in assay [2] worked out at 824 nM; in assay [3] it was 885 nM; in assay [4] it was 1610 nM.

As for `C=CC(=O)Nc1ccc(F)c(Nc2nc(Nc3cnn(C)c3)ncc2C#Cc2ccccc2)c1` [Compound 161, N-[4-fluoro-3-({2-[(1-methyl-1H-pyrazol-4-yl)amino]-5-(2-phenylethynyl)pyrimidin-4-yl}amino)phenyl]prop-2-enamide], in assay [1] (setting [6]), the IC50 is more than 10000 nM. For the same compound, the GI50 was 288 nM in assay [2], 289 nM in assay [3] and 897 nM in assay [4].

Consider `C=CC(=O)Nc1cccc(Nc2nc(Nc3cnn(C)c3)ncc2CN(C(C)=O)c2ccccc2)c1` [Compound 18], for which, in assay [1] (setting [6]), the IC50 is more than 10000 nM. Moreover, the GI50 in assay [2] was more than 10000 nM; in assay [3], 7160 nM; in assay [4] it was more than 10000 nM.

For the compound `C=CC(=O)Nc1ccc(F)c(Nc2nc(Nc3cnn(C(C)(C)C#N)c3)ncc2-c2ccc(C(F)(F)F)cc2)c1` [Compound 246, N-(3-((2-((1-(2-cyanopropan-2-yl)-1H-pyrazol-4-yl)amino)-5-(4-(trifluoromethyl)phenyl)pyrimidin-4-yl)amino)-4-fluorophenyl)acrylamide], the concentration for half-maximal inhibition (IC50) in assay [1] (setting [5]) was determined as 368 nM. Besides, the GI50 turned out to be 299 nM in assay [2], 303 nM in assay [3] and 2070 nM in assay [4].

On to `C=CC(=O)Nc1ccc(OC)c(Nc2nc(Nc3cnn(C)c3)ncc2Cl)c1` [Compound 13, N-(3-((5-chloro-2-((1-methyl-1H-pyrazol-4-yl)amino)pyrimidin-4-yl)amino)-4-methoxyphenyl)acrylamide], for which the IC50 in assay [1] (setting [6]) is more than 10000 nM. For the same compound, the GI50 in assay [2], in assay [3] and in assay [4] was more than 10000 nM in each case.

With `C=CC(=O)Nc1ccc(-c2ccccc2)c(Nc2ccnc(Nc3cnn(C)c3)n2)c1` [Compound 175, N-[2-({2-[(1-methyl-1H-pyrazol-4-yl)amino]pyrimidin-4-yl}amino)-[1,1′-biphenyl]-4-yl]prop-2-enamide], the IC50 in assay [1] (setting [6]) is more than 10000 nM. The GI50 in assay [2], in assay [3] and in assay [4] was more than 10000 nM throughout.

Take `C=CC(=O)Nc1ccc(-c2ccccc2)c(Nc2nc(Nc3cnn(C)c3)ncc2Cl)c1` [Compound 177, N-(2-((5-chloro-2-((1-methyl-1H-pyrazol-4-yl)amino)pyrimidin-4-yl)amino)-[1,1′-biphenyl]-4-yl)acrylamide]: the IC50 in assay [1] (setting [6]) was more than 10000 nM. Moreover, the GI50 in assay [2], in assay [3] and in assay [4] was more than 10000 nM throughout.

As to `C=CC(=O)Nc1ccc(F)c(Nc2nc(Nc3cnn(C)c3)ncc2-c2ccc3ccccc3c2)c1` [Compound 149, N-(4-fluoro-3-((2-((1-methyl-1H-pyrazol-4-yl)amino)-5-(naphthalen-2-yl)pyrimidin-4-yl)amino)phenyl)acrylamide trifluoroacetate], in assay [1] (setting [6]), the IC50 is 469 nM. Moreover, the GI50 worked out at 308 nM in assay [2], 747 nM in assay [3] and 501 nM in assay [4].

Take `C=CC(=O)Nc1cccc(Oc2nc(Nc3cnn(C)c3)nnc2Cl)c1` [Compound 157, N-(3-((6-chloro-3-((1-methyl-1H-pyrazol-4-yl)amino)-1,2,4-triazin-5-yl)oxy)phenyl)acrylamide]: in assay [1] (setting [6]), the IC50 is more than 10000 nM. Further, the GI50 in assay [2] is more than 10000 nM; in assay [3], more than 10000 nM; in assay [4] it was 3660 nM.

With `C=CC(=O)Nc1ccc(F)c(Nc2nc(Nc3ccnn3C)ncc2Cl)c1` [Compound 31, N-(3-((5-chloro-2-((1-methyl-1H-pyrazol-5-yl)amino)pyrimidin-4-yl)amino)-4-fluorophenyl)acrylamide], in assay [1] (setting [6]), the IC50 stood at 9800 nM. Also, the GI50 in assay [2] amounted to 9960 nM; in assay [3] it was 9870 nM; in assay [4] it was 5180 nM.

In the case of `C=CC(=O)Nc1ccc(F)c(Oc2nc(Nc3cnn(C)c3)ncc2Cl)c1` [Compound 166, N-(3-((5-chloro-2-((1-methyl-1H-pyrazol-4-yl)amino)pyrimidin-4-yl)oxy)-4-fluorophenyl)acrylamide], the IC50 in assay [1] (setting [6]) was more than 10000 nM. In addition, the GI50 in assay [2] is 1320 nM; in assay [3], 1250 nM; in assay [4] it was 1690 nM.

One may read the IC50 as the concentration that inhibits the measured activity by half.
